Assay results taken from patent US9096524B2, “Anthelmintic agents and their use” (Intervet International B.V., priority 2009, dated 2015).
Where two headings read alike, the source gives them in different places.

Experiments:
[1] = tested on: A. galli (intestinal roundworm of chicken) larval stage 3; O. dentatum (nodular worm of swine) larval stages 3 and 4; assay: Activity against Ascaridia galli and Oesophagostomum dentatum larvae in vitro (minimum effective concentration); type: cell-based
Haemonchus contortus = assay: Efficacy against Haemonchus contortus in jirds; type: in vivo, jirds (Meriones unguiculatus); conditions: 72 h, read-out: % Reduction in H.
Protocol: Anthelmintic effects of compounds of this invention were tested in vivo using Haemonchus contuortus in jirds (Meriones unguiculatus). The jirds were orally infected with approximately 750-3,000 third-stage larvae of Haemonchus contortus. Ten days after infection, the jirds in the treatment groups were treated once orally or subcutaneously at a dose of 2, 10, and/or 50 mg per kg bodyweight. Three days after treatment, the jirds were necropsied, and the larvae burden in the stomach is determined. The efficacy is defined as the reduction of the mean larvae count in the jirds of the treatment groups in comparison to the infected jirds in the untreated negative control group.

[2] = read-out: MEC (minimum effective concentration) against one or more of the tested nematodes, in vitro, one or more of A. galli L3, O. dentatum L3, L4, threshold 1 μM
[3] = read-out: MEC (minimum effective concentration) against one or more of the tested nematodes, in vitro, one or more of A. galli L3, O. dentatum L3, L4, threshold 7 μM
[4] = read-out: MEC (minimum effective concentration) against two or more of the tested nematodes, in vitro, two or more of A. galli L3, O. dentatum L3, L4, threshold 1 μM
[5] = in vitro, one or more of A. galli L3, O. dentatum L3, L4, threshold 1 μM, read-out: MEC (minimum effective concentration) against one or more of the tested nematodes
[6] = in vitro, one or more of A. galli L3, O. dentatum L3, L4, threshold 7 μM, read-out: MEC (minimum effective concentration) against one or more of the tested nematodes
[7] = in vitro, two or more of A. galli L3, O. dentatum L3, L4, threshold 1 μM, read-out: MEC (minimum effective concentration) against two or more of the tested nematodes
[8] = jirds, 10 mg/kg, oral, single treatment, larvae burden in stomach 3 days after treatment
[9] = sc, jirds, 10 mg/kg, subcutaneous, single treatment, larvae burden in stomach 3 days after treatment
[10] = jirds, 50 mg/kg, oral, single treatment, larvae burden in stomach 3 days after treatment
[11] = sc, jirds, 50 mg/kg, subcutaneous, single treatment, larvae burden in stomach 3 days after treatment

SMILES: COc1cc(NC2CCN(C(=O)CCN3CCN(c4ccc(OCc5ccc(C(F)(F)F)cc5)cc4)CC3)CC2)ccc1[N+](=O)[O-] [Example 40, 1-[4-(3-methoxy-4-nitro-phenylamino)-piperidin-1-yl]-3-{4-[4-(4-trifluoromethyl-benzyloxy)-phenyl]-piperazin-1-yl}-propan-1-one]
- minimal effective concentration [1, 2]: < 1 µM
- minimal effective concentration [1, 3]: < 7 µM
- minimal effective concentration [1, 4]: < 1 µM
- inhibition in vivo at 50 mg/kg (Haemonchus contortus; po): 0%
- inhibition in vivo at 50 mg/kg (Haemonchus contortus; sc): 74%

SMILES: O=C(CCCN1CCN(c2ccc(C(F)(F)F)cc2)CC1)N1CCC(Nc2ccc(C(F)(F)F)cn2)CC1 [Example 51, 4-[4-(4-trifluoromethyl-phenyl)-piperazin-1-yl]-1-[4-(5-trifluoromethyl-pyridin-2-ylamino)-piperidin-1-yl]-butan-1-one]
- minimal effective concentration [1, 2]: < 1 µM
- minimal effective concentration [1, 3]: < 7 µM
- minimal effective concentration [1, 4]: < 1 µM
- inhibition in vivo at 50 mg/kg (Haemonchus contortus; po): 86%
- inhibition in vivo at 50 mg/kg (Haemonchus contortus; sc): 63%

SMILES: O=C(CCCN1CCN(c2ccc(C(F)(F)F)cc2)CC1)N1CCC(Nc2ccc(OC(F)(F)F)cc2)CC1 [Example 54, 1-[4-(4-trifluoromethoxy-phenylamino)-piperidin-1-yl]-4-[4-(4-trifluoromethyl-phenyl)-piperazin-1-yl]-butan-1-one]
- minimal effective concentration [1, 2]: < 1 µM
- minimal effective concentration [1, 3]: < 7 µM
- minimal effective concentration [1, 4]: < 1 µM
- inhibition in vivo at 50 mg/kg (Haemonchus contortus; po): 95%
- inhibition in vivo at 50 mg/kg (Haemonchus contortus; sc): 58%

SMILES: O=C(CCN1CCC(OCc2ccc(C(F)(F)F)cc2)CC1)N1CCC(Nc2ccc([N+](=O)[O-])c(C(F)(F)F)c2)CC1 [Example 57, 1-[4-(4-nitro-3-trifluoromethyl-phenylamino)-piperidin-1-yl]-3-[4-(4-trifluoromethyl-benzyloxy)-piperidin-1-yl]-propan-1-one]
- minimal effective concentration [1, 2]: < 1 µM
- minimal effective concentration [1, 3]: < 7 µM
- minimal effective concentration [1, 4]: < 1 µM
- inhibition in vivo at 50 mg/kg (Haemonchus contortus; po): 85%
- inhibition in vivo at 50 mg/kg (Haemonchus contortus; sc): 84%

SMILES: CC(CN1CCN(c2ccc(Cl)cc2)CC1)C(=O)N1CCC(Nc2ccc([N+](=O)[O-])c(C(F)(F)F)c2)CC1 (stereo not shown) [Example 61, 3-[4-(4-chloro-phenyl)-piperazin-1-yl]-2-methyl-1-[4-(4-nitro-3-trifluoromethyl-phenylamino)-piperidin-1-yl]-propan-1-one]
- minimal effective concentration [1, 2]: < 1 µM
- minimal effective concentration [1, 3]: < 7 µM
- minimal effective concentration [1, 4]: < 1 µM
- inhibition in vivo at 50 mg/kg (Haemonchus contortus; po): 100%
- inhibition in vivo at 50 mg/kg (Haemonchus contortus; sc): 100%

SMILES: C[C@@H](CN1CCN(c2ccc(C(F)(F)F)cc2)CC1)C(=O)N1CCC(Nc2ccc([N+](=O)[O-])c(C(F)(F)F)c2)CC1 [Example 68, (S)-2-methyl-1-[4-(4-nitro-3-trifluoromethyl-phenylamino)-piperidin-1-yl]-3-[4-(4-trifluoromethyl-phenyl)-piperazin-1-yl]-propan-1-one]
- minimal effective concentration [1, 5]: < 1 µM
- minimal effective concentration [1, 6]: < 7 µM
- minimal effective concentration [1, 7]: < 1 µM
- inhibition in vivo at 10 mg/kg (Haemonchus contortus; [8]): 99%
- inhibition in vivo at 10 mg/kg (Haemonchus contortus; [9]): 99%

SMILES: Cc1cc(NC2CCN(C(=O)CCCN3CCN(c4ccc(C(F)(F)F)cc4)CC3)CC2)ncc1[N+](=O)[O-] [Example 71, 1-[4-(4-methyl-5-nitro-pyridin-2-ylamino)-piperidin-1-yl]-4-[4-(4-trifluoromethyl-phenyl)-piperazin-1-yl]-butan-1-one]
- minimal effective concentration [1, 2]: < 1 µM
- minimal effective concentration [1, 3]: < 7 µM
- minimal effective concentration [1, 4]: < 1 µM
- inhibition in vivo at 50 mg/kg (Haemonchus contortus; po): 55%
- inhibition in vivo at 50 mg/kg (Haemonchus contortus; sc): 35%

SMILES: O=C(CCCN1CCN(c2ccc(C(F)(F)F)cc2)CC1)NC1CCN(c2ccc([N+](=O)[O-])c(C(F)(F)F)c2)CC1 [Example 73, N-[1-(4-nitro-3-trifluoromethyl-phenyl)-piperidin-4-yl]-4-[4-(4-trifluoromethyl-phenyl)-piperazin-1-yl]-butyramide]
- minimal effective concentration [1, 5]: < 1 µM
- minimal effective concentration [1, 6]: < 7 µM
- minimal effective concentration [1, 7]: < 1 µM
- inhibition in vivo at 10 mg/kg (Haemonchus contortus; [8]): 54%
- inhibition in vivo at 10 mg/kg (Haemonchus contortus; [9]): 63%

SMILES: O=C(CCCN1CCN(c2ccc(C(F)(F)F)cc2)CC1)NC1CCN(c2ccc(SC(F)(F)F)cc2)CC1 [Example 76, 4-[4-(4-trifluoromethyl-phenyl)-piperazin-1-yl]-N-[1-(4-trifluoromethylsulfanyl-phenyl)-piperidin-4-yl]-butyramide]
- minimal effective concentration [1, 5]: < 1 µM
- minimal effective concentration [1, 6]: < 7 µM
- minimal effective concentration [1, 7]: < 1 µM
- inhibition in vivo at 10 mg/kg (Haemonchus contortus; [8]): 67%
- inhibition in vivo at 10 mg/kg (Haemonchus contortus; [9]): 13%

SMILES: O=C(CCN1CCN(c2nnc(C(F)(F)F)s2)CC1)N1CCC(Nc2ccc([N+](=O)[O-])c(C(F)(F)F)c2)CC1 [Example 124, 1-[4-(4-nitro-3-trifluoromethyl-phenylamino)-piperidin-1-yl]-3-[4-(5-trifluoromethyl-1,3,4-thiadiazol-2-yl)-piperazin-1-yl]-propan-1-one]
- minimal effective concentration [1, 2]: < 1 µM
- minimal effective concentration [1, 3]: < 7 µM
- minimal effective concentration [1, 4]: < 1 µM
- inhibition in vivo at 10 mg/kg (Haemonchus contortus; po): 47%
- inhibition in vivo at 10 mg/kg (Haemonchus contortus; sc): 75%

SMILES: O=C(CCN1CCN(c2ccc(C(F)(F)F)nc2)CC1)N1CCC(Nc2ccc([N+](=O)[O-])c(C(F)(F)F)c2)CC1 [Example 126, 1-[4-(4-nitro-3-trifluoromethyl-phenylamino)-piperidin-1-yl]-3-[4-(6-trifluoromethyl-pyridin-3-yl)-piperazin-1-yl]-propan-1-one]
- minimal effective concentration [1, 2]: < 1 µM
- minimal effective concentration [1, 3]: < 7 µM
- minimal effective concentration [1, 4]: < 1 µM
- inhibition in vivo at 10 mg/kg (Haemonchus contortus; po): 64%
- inhibition in vivo at 10 mg/kg (Haemonchus contortus; sc): 86%

SMILES: O=C(CCCC1CCN(c2ccc(C(F)(F)F)cc2)CC1)N1CCC(Nc2ccc([N+](=O)[O-])c(C(F)(F)F)c2)CC1 [Example 134, 1-[4-(4-nitro-3-trifluoromethyl-phenylamino)-piperidin-1-yl]-4-[1-(4-trifluoromethyl-phenyl)-piperidin-4-yl]-butan-1-one]
- minimal effective concentration [1, 2]: < 1 µM
- minimal effective concentration [1, 3]: < 7 µM
- minimal effective concentration [1, 4]: < 1 µM
- inhibition in vivo at 10 mg/kg (Haemonchus contortus; po): 99%
- inhibition in vivo at 10 mg/kg (Haemonchus contortus; sc): 99%

SMILES: O=C(CCCN1CCN(c2ccc(C(F)(F)F)cn2)CC1)N1CCC(Nc2ccc([N+](=O)[O-])c(C(F)(F)F)c2)CC1 [Example 151, 1-[4-(4-nitro-3-trifluoromethyl-phenylamino)-piperidin-1-yl]-4-[4-(5-trifluoromethyl-pyridin-2-yl)-piperazin-1-yl]-butan-1-one]
- minimal effective concentration [1, 2]: < 1 µM
- minimal effective concentration [1, 3]: < 7 µM
- minimal effective concentration [1, 4]: < 1 µM
- inhibition in vivo at 10 mg/kg (Haemonchus contortus; po): 88%
- inhibition in vivo at 10 mg/kg (Haemonchus contortus; sc): 84%

SMILES: O=C(CCN1CCN(c2ccc(Cl)cc2)CC1)N1CCC(Nc2ccc(S(=O)(=O)c3ccc(F)cc3)cc2)CC1 [Example 295]
- minimal effective concentration [1, 7]: < 1 µM
- inhibition in vivo at 50 mg/kg (Haemonchus contortus; [10]): 97%
- inhibition in vivo at 50 mg/kg (Haemonchus contortus; [11]): 0%

SMILES: CC(C)(C)c1ccc(N2CCN(CCCC(=O)N3CCC(Nc4ccc(C#N)c(Cl)c4)CC3)CC2)cc1 [Example 322]
- minimal effective concentration [1, 4]: < 1 µM
- inhibition in vivo at 50 mg/kg (Haemonchus contortus; po): 67%
- inhibition in vivo at 50 mg/kg (Haemonchus contortus; sc): 73%

SMILES: CC(C)(C)c1ccc(N2CCN(CCC(=O)N3CCC(Nc4ccc(C#N)c(C(F)(F)F)c4)CC3)CC2)cc1 [Example 324]
- minimal effective concentration [1, 4]: < 1 µM
- inhibition in vivo at 50 mg/kg (Haemonchus contortus; po): 89%
- inhibition in vivo at 50 mg/kg (Haemonchus contortus; sc): 90%

SMILES: CCOC(=O)c1ccc(NC2CCN(C(=O)CCN3CCN(c4ccc(C(C)(C)C)cc4)CC3)CC2)cc1 [Example 334]
- minimal effective concentration [1, 5]: < 1 µM
- minimal effective concentration [1, 7]: < 1 µM
- inhibition in vivo at 50 mg/kg (Haemonchus contortus; [10]): 78%
- inhibition in vivo at 50 mg/kg (Haemonchus contortus; [11]): 82%

SMILES: CN(C)S(=O)(=O)c1ccc(NC2CCN(C(=O)CCN3CCN(c4ccc(C(C)(C)C)cc4)CC3)CC2)cc1C(F)(F)F [Example 345]
- minimal effective concentration [1, 7]: < 1 µM
- inhibition in vivo at 50 mg/kg (Haemonchus contortus; [10]): 76%
- inhibition in vivo at 50 mg/kg (Haemonchus contortus; [11]): 61%

SMILES: CC(C)(C)c1ccc(C2CCN(CCC(=O)N3CCC(Nc4ccc([N+](=O)[O-])c(C(F)(F)F)c4)CC3)CC2)cc1 [Example 367]
- minimal effective concentration [1, 7]: < 1 µM
- inhibition in vivo at 50 mg/kg (Haemonchus contortus; [10]): 73%
- inhibition in vivo at 50 mg/kg (Haemonchus contortus; [11]): 45%

SMILES: COc1cc(NC2CCN(C(=O)CCN3CCN(c4ccc(Cl)cc4)CC3)CC2)ccc1[N+](=O)[O-] [Example 385]
- minimal effective concentration [1, 5]: < 1 µM
- minimal effective concentration [1, 6]: < 7 µM
- minimal effective concentration [1, 7]: < 1 µM
- inhibition in vivo at 50 mg/kg (Haemonchus contortus; [10]): 0%
- inhibition in vivo at 50 mg/kg (Haemonchus contortus; [11]): 83%

SMILES: Cn1nnc(-c2ccc(NC3CCN(C(=O)CCN4CCN(c5ccc(C(C)(C)C)cc5)CC4)CC3)cc2)n1 [Example 444]
- minimal effective concentration [1, 5]: < 1 µM
- minimal effective concentration [1, 6]: < 7 µM
- minimal effective concentration [1, 7]: < 1 µM
- inhibition in vivo at 50 mg/kg (Haemonchus contortus; [10]): 78%
- inhibition in vivo at 50 mg/kg (Haemonchus contortus; [11]): 52%
